Measurements reported in patent publication US20220133702A1, “CYSTIC FIBROSIS TRANSMEMBRANE CONDUCTANCE REGULATOR MODULATORS FOR TREATING AUTOSOMAL DOMINANT POLYCYSTIC KIDNEY DISEASE” (The Johns Hopkins University, priority 2020, published 2022).

Experiments:
[1] = tested on: PN cells; assay: BrdU cell proliferation assay; type: cell-based, mouse; details: 1 and 10 μM, vs DMSO-treated cells
Text: FIG. 3A, FIG. 3B, FIG. 3C, and FIG. 3D show cell proliferation is reduced by VX-809. (FIG. 3A-FIG. 3B) Proliferation in kidneys of Pkd1^fl/fl; Pax8^rtTA; TetO-cre mice. Representative images of Ki67 (a cellular marker for proliferation) staining of PN21 kidney sections from DMSO- and VX-809-treated mice. Arrows indicate Ki67-positive cells. Pictures were acquired with a Zeiss microscope equipped with 20× objective. (FIG. 3C) Summary data for Ki67-positive cells. Columns represent averages±standard errors of DMSO (vehicle)-treated (n=3) and VX-809-treated (n=3) mice. Statistical analysis was performed using a two-tailed Student's t test. (FIG. 3D) Proliferation in PN cells. PN cells were treated with VX-809 or DMSO). The bromodeoxyuridine (BrdU) concentration in the cells was measured by using a BrdU cell proliferation assay kit (Millipore Sigma#2750) according to the manufacturer's protocol. Columns represent averages±SEs of the OD of BrdU at 450/550 […]. Data were analyzed using Student's t-test, with n=5-7. Methods were described previously (62). *P>0.05; **P<0.01;
A hallmark of the cysts in ADPKD is an increase in proliferation in response to cAMP. Therefore, it was determined whether VX-809 would affect proliferation.

[2] = tested on: CFTR; assay: Confocal localization of CFTR with ER, Golgi and PM markers; type: cell-based; details: treated vs control cells, Pearson's correlation with markers
Text: FIG. 18A and FIG. 18B show images of confocal microscopy localization studies of CFTR and localization markers in control and treated cells (FIG. 18A) and graphs showing Pearson's correlation coefficient for CFTR and localization markers in control and VX-809 treated cells (FIG. 18B).
(§1) The localization of PC2 and CFTR in control cells was compared to the localization of PC2 and CFTR localization in VX-809 treated cells.

[3] = tested on: PC2; assay: Confocal localization of PC2 with ER, Golgi and PM markers; type: cell-based; details: treated vs control cells, Pearson's correlation with markers
Text: FIG. 17A and FIG. 17B show images of confocal microscopy localization studies of PC2 and localization markers in control and treated cells (FIG. 17A) and graphs showing Pearson's correlation coefficient for PC2 and localization markers in control and VX-809 treated cells (FIG. 17B).
as §1

[4] = tested on: CFTR in PN cells; assay: CFTR expression and biotinylation; type: cell-based, mouse; details: 10 μM, 16 h, vs control PN cells
Procedure: FIG. 19A, FIG. 19B, FIG. 19C, and FIG. 19D show CFTR expression in PN cells treated with VX-809 (10 μM) for 16 h.
The expression of CFTR was evaluated in PN cells treated with VX-809 and control PN cells. PN cells were treated with 10 μM VX-809 for 16 h or a control.

[5] = tested on: GADD153; assay: GADD153 immunostaining of kidney sections; type: in vivo; details: PN21 mouse kidney sections, vs DMSO
Text: FIG. 12A, FIG. 12B, and FIG. 12C show GADD153 expression in kidneys of Pkd1fllfl; Pax8^rtTA; TetO-cre mice. Immunofluorescence images representing the GADD expression (green) in DMSO (FIG. 12A) or VX-809 (FIG. 12B) treated PN21 Pkd1^fl/fl mouse. Columns (FIG. 12C) represent % area of GADD immunopositive (green) cells in DMSO or VX-809 treated PN21 Pkd1^fl/fl mouse kidney sections. Data are expressed as mean±1 SEM of DMSO (vehicle)-treated (n=4) and VX-809-treated (n=4) mice. Statistical analysis was performed using a 2-tailed Student t-test. DMSO, dimethyl sulfoxide. Kidneys were fixed in 4% paraformaldehyde as described (62). Used here was the GADD153 antibody (Sc-7351), goat antirabbit (A21429, AlexaFluor 555, 1:1,000; Life Technologies, Carlsbad, Calif.) and DAPI (H-1200; Vector Laboratories, Burlingame, Calif.). Pictures were acquired with a Zeiss microscope equipped a 20× objective. Cells positive for GADD153 and the total number of cells were measured with ImageJ. The results are expressed as percentages;
Given that VX-809 alters an ensemble of Hsps, it was evaluated whether VX-809 alters proteins associated with ER stress. To address this question, the levels of three ER stress-associated proteins were measured, 78-kDa glucose-regulated protein (GRP78), ER oxidoreductin 1 (Ero1) and DNA damage-inducible protein 3 (GADD153), also known as C/EBP homologous protein (CHOP) (37). […]

[6] = tested on: PC2 in Pkd1^fl/fl; Pax8^rtTA; TetO-cre mice; assay: Immunoblot of PC2 protein in kidney tissue, PC1-null model; type: in vivo, mouse; details: doxycycline plus VX-809
Procedure: (§2) The levels of PC2 protein were analyzed in two mouse models of ADPKD: Pkd1^fl/fl; Pax8^rtTA; TetO-cre, which is PC1 null, and the Pkd1^R3277C/R3277C (pkd1^RC/RC) which has a missense mutation in PC1. Pkd1^RC/RC mice develop a consistent, slowly progressing polycystic kidney disease. Pkd1^RC/RC mice were treated daily with VX-809, beginning at one month, and euthanized at 6 months.
Mice were treated without doxycycline (ND), with doxycycline plus DMSO (D), or with doxycycline plus VX809 (D+VX809), as indicated. Three mice were analyzed for each treatment.
In the Pkd1^fl/fl mice, doxycycline-induced cyst formation increases PC2 protein.

[7] = tested on: PC2 in PN cells; assay: Western blot of endogenous PC2; type: cell-based, mouse
Procedure: FIG. 6A and FIG. 6B show PC2 expression is unchanged by VX-809. (FIG. 6A) Western blot showing expression of PC2 in treated or control cells. (FIG. 6B) Columns represent the means±SEM of the PC2 expression. The data were analyzed by non-parametric t-test. The experiment was repeated six (control) or seven times;
PC2 is a 968-amino acid protein with an approximate molecular weight of 100 kDa in its monomeric form To determine whether VX-809 affects PC2 protein expression, western blot experiments were conducted on PN cells to determine the resting levels of endogenous PC2. The results indicated (FIG. 6) that VX-809 has no effect on PC2 expression.

[8] = tested on: PC2 in Pkd1^RC/RC mice; assay: Immunoblot of PC2 protein in kidney tissue, missense model; type: in vivo, mouse; details: treated daily from one month to 6 months
Procedure: as §2
Wild-type mice were treated without doxycycline (Wt), and Pkd1^RC/RC mice were treated with doxycycline plus DMSO (RC) or with doxycycline plus VX809 (RC+VX809), as indicated. Three mice were analyzed for each treatment.
In Pkd1^RC/RC mice, doxycycline-induced cyst formation decreases PC2 protein.

Compound: Cc1ccc(NC(=O)C2(c3ccc4c(c3)OC(F)(F)O4)CC2)nc1-c1cccc(C(=O)O)c1 [VX-809, lumacaftor]
- cell proliferation (BrdU) [1]: significantly inhibit cell proliferation
- CFTR localization [2]: statistically significant move of CFTR from the ER to Basolateral and Apical Membrane
- PC2 localization [3]: statistically significant move of PC2 from the ER to Golgi
- CFTR expression [4]: enhanced
- biotinylation of CFTR [4]: significantly increased
- GADD153 immunostaining [5]: strong reduction
- PC2 protein expression (normalized to vinculin) [6]: restores PC2 expression to near-normal values
- PC2 expression [7]: no effect
- PC2 protein expression (normalized to vinculin) [8]: higher levels of PC2 expression
